Experimental data reported in paper PMC10247784, “Physiological activation of human and mouse bitter taste receptors by bile acids” (Communications Biology, 2023).
Values joined by “and” are separate entries in the source; they are usually repeats but may differ in a detail not shown here. Equal values may be shown once.

Target: T1, human TAS2R14 (Homo sapiens, UniProt Q9NYV8)
T1 construct: expressed in transfected cells; host or cells: HEK293T-Gα16gust44
T1 sequence (Q9NYV8 1-317): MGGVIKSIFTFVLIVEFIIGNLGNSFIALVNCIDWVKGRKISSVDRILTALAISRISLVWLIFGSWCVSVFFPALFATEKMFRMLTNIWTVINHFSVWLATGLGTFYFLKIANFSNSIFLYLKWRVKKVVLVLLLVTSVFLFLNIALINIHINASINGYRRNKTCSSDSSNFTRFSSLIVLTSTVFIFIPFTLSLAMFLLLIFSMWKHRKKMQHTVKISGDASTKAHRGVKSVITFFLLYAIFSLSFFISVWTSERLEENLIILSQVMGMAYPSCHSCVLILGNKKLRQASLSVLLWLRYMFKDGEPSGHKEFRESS
Experiment: Calcium imaging assay (FLIPR), HEK293T-Gα16gust44 cells transfected with human TAS2R14
Format: cell-based
Conditions: for RLU: TAS2R14 trace
Procedure, shortened: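 Read-out is Fluo-4 fluorescence change (ΔF/F) after automated application of bile acids (DMSO stocks) to transiently transfected cells. Values are corrected for empty-vector cells and normalized to buffer. Dose-response from three independent experiments in duplicate; threshold concentration set at p < 0.01 versus mock.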

In the case of `C[C@H](CCC(=O)NCCS(=O)(=O)O)[C@H]1CC[C@H]2[C@@H]3CC[C@@H]4C[C@H](O)CC[C@]4(C)[C@H]3CC[C@]12C` [Taurolithocholic Acid, taurolithocholic acid], the “Efficacy = maximal amplitude (ΔF/F)” value (TAS2R14, bile acids, mean) is reported as 0.07188, the “Efficacy (maximal amplitude ΔF/F), individual data points” value (TAS2R14, bile acids, single replicates, listed as TLCA) is reported as 0.06981 and 0.08988 and 0.05106 and the RLU (Time (s) 0) is reported as 0 RLU. For the same compound, the RLU (Time (s) 2 (Taurocholic Acid 2.016)) was 5.076 RLU, the RLU (Time (s) 4 (Taurocholic Acid 4.016)) was -5.108 RLU and the RLU (Time (s) 6 (Taurocholic Acid 6.016)) was -10.1397 RLU. It also gave an RLU (Time (s) 8 (Taurocholic Acid 8.016)) of -25.9369 RLU, an RLU (Time (s) 12 (Taurocholic Acid 12.016)) of -47.2431 RLU and an RLU (Time (s) 14 (Taurocholic Acid 14.016)) of -37.8259 RLU. The RLU (Time (s) 16 (Taurocholic Acid 16.016)) was -67.1139 RLU, the RLU (Time (s) 18 (Taurocholic Acid 18.016)) was -63.8827 RLU and the RLU (Time (s) 18.797 (Chenodeoxycholic Acid 18.765)) was -68.311 RLU. It also gave an RLU (Time (s) 20.797 (Chenodeoxycholic Acid 20.781)) of -66.196 RLU, an RLU (Time (s) 22.797 (Chenodeoxycholic Acid 22.781)) of -50.0226 RLU and an RLU (Time (s) 24.797 (Chenodeoxycholic Acid 24.781)) of -48.2767 RLU. For the same compound, the RLU (Time (s) 26.797 (Chenodeoxycholic Acid 26.781)) was -41.6616 RLU, the RLU (Time (s) 28.797 (Chenodeoxycholic Acid 28.781)) was -45.6719 RLU and the RLU (Time (s) 30.797 (Chenodeoxycholic Acid 30.781)) was -13.6241 RLU. It also gave an RLU (Time (s) 32.797 (Chenodeoxycholic Acid 32.781)) of 14.5625 RLU, an RLU (Time (s) 34.797 (Chenodeoxycholic Acid 34.781)) of 34.5332 RLU and an RLU (Time (s) 36.797 (Chenodeoxycholic Acid 36.781)) of 37.8124 RLU. For the same compound, the RLU (Time (s) 38.797 (Chenodeoxycholic Acid 38.781)) was 50.8625 RLU, the RLU (Time (s) 40.797 (Chenodeoxycholic Acid 40.781)) was 58.2474 RLU and the RLU (Time (s) 42.797 (Chenodeoxycholic Acid 42.781)) was 67.9279 RLU. The RLU (Time (s) 44.797 (Chenodeoxycholic Acid 44.781)) was 76.8016 RLU, the RLU (Time (s) 46.797 (Chenodeoxycholic Acid 46.781)) was 99.8168 RLU and the RLU (Time (s) 48.797 (Chenodeoxycholic Acid 48.781)) was 113.593 RLU. For the same compound, the RLU (Time (s) 50.797 (Chenodeoxycholic Acid 50.781)) was 125.702 RLU, the RLU (Time (s) 52.797 (Chenodeoxycholic Acid 52.781)) was 143.488 RLU and the RLU (Time (s) 54.797 (Chenodeoxycholic Acid 54.781)) was 148.335 RLU. The RLU (Time (s) 56.797 (Chenodeoxycholic Acid 56.781)) was 163.155 RLU, the RLU (Time (s) 58.797 (Chenodeoxycholic Acid 58.781)) was 176.389 RLU and the RLU (Time (s) 60.797 (Chenodeoxycholic Acid 60.781)) was 197.723 RLU. It also gave an RLU (Time (s) 62.797 (Chenodeoxycholic Acid 62.781)) of 213.291 RLU, an RLU (Time (s) 64.797 (Chenodeoxycholic Acid 64.781)) of 213.968 RLU and an RLU (Time (s) 66.797 (Chenodeoxycholic Acid 66.781)) of 225.512 RLU. For the same compound, the RLU (Time (s) 68.797 (Chenodeoxycholic Acid 68.781)) was 237.861 RLU, the RLU (Time (s) 70.797 (Chenodeoxycholic Acid 70.781)) was 234.615 RLU and the RLU (Time (s) 72.797 (Chenodeoxycholic Acid 72.781)) was 231.58 RLU. The RLU (Time (s) 74.797 (Chenodeoxycholic Acid 74.781)) was 268.946 RLU, the RLU (Time (s) 76.797 (Chenodeoxycholic Acid 76.781)) was 267.933 RLU and the RLU (Time (s) 78.797 (Chenodeoxycholic Acid 78.781)) was 291.733 RLU. For the same compound, the RLU (Time (s) 80.797 (Chenodeoxycholic Acid 80.781)) was 290.533 RLU, the RLU (Time (s) 82.797 (Chenodeoxycholic Acid 82.781)) was 307.412 RLU and the RLU (Time (s) 84.797 (Chenodeoxycholic Acid 84.781)) was 297.633 RLU. The RLU (Time (s) 86.797 (Chenodeoxycholic Acid 86.781)) was 303.737 RLU, the RLU (Time (s) 88.797 (Chenodeoxycholic Acid 88.781)) was 299.661 RLU and the RLU (Time (s) 90.797 (Chenodeoxycholic Acid 90.781)) was 303.944 RLU. The RLU (Time (s) 92.797 (Chenodeoxycholic Acid 92.781)) was 328.349 RLU, the RLU (Time (s) 94.797 (Chenodeoxycholic Acid 94.781)) was 307.307 RLU and the RLU (Time (s) 96.797 (Chenodeoxycholic Acid 96.781)) was 314.559 RLU. The RLU (Time (s) 98.797 (Chenodeoxycholic Acid 98.781)) was 326.967 RLU, the RLU (Time (s) 100.797 (Chenodeoxycholic Acid 100.781)) was 302.894 RLU and the RLU (Time (s) 102.797 (Chenodeoxycholic Acid 102.781)) was 324.498 RLU. It also gave an RLU (Time (s) 104.797 (Chenodeoxycholic Acid 104.781)) of 347.898 RLU, an RLU (Time (s) 106.797 (Chenodeoxycholic Acid 106.781)) of 338.946 RLU and an RLU (Time (s) 108.797 (Chenodeoxycholic Acid 108.781)) of 361.614 RLU. The RLU (Time (s) 110.797 (Chenodeoxycholic Acid 110.781)) was 335.334 RLU, the RLU (Time (s) 112.797 (Chenodeoxycholic Acid 112.781)) was 367.933 RLU and the RLU (Time (s) 114.797 (Chenodeoxycholic Acid 114.781)) was 388.996 RLU. For the same compound, the RLU (Time (s) 116.797 (Chenodeoxycholic Acid 116.781)) was 373.414 RLU, the RLU (Time (s) 118.797 (Chenodeoxycholic Acid 118.781)) was 374.133 RLU and the RLU (Time (s) 120.797 (Chenodeoxycholic Acid 120.781)) was 378.298 RLU. The RLU (Time (s) 122.797 (Chenodeoxycholic Acid 122.781)) was 394.755 RLU, the RLU (Time (s) 124.797 (Chenodeoxycholic Acid 124.781)) was 385.131 RLU and the RLU (Time (s) 126.797 (Chenodeoxycholic Acid 126.781)) was 394.257 RLU. For the same compound, the RLU (Time (s) 128.797 (Chenodeoxycholic Acid 128.781)) was 394.724 RLU, the RLU (Time (s) 130.797 (Chenodeoxycholic Acid 130.781)) was 379.935 RLU and the RLU (Time (s) 132.797 (Chenodeoxycholic Acid 132.781)) was 394.817 RLU. For the same compound, the RLU (Time (s) 134.797 (Chenodeoxycholic Acid 134.781)) was 375.334 RLU, the RLU (Time (s) 136.797 (Chenodeoxycholic Acid 136.781)) was 397.788 RLU and the RLU (Time (s) 137.562 (Taurocholic Acid 137.563, Chenodeoxycholic Acid 137.546)) was 382.953 RLU. It also gave an RLU (Time (s) 143.578 (Taurocholic Acid 143.563, Chenodeoxycholic Acid 143.546)) of 394.002 RLU, an RLU (Time (s) 149.578 (Taurocholic Acid 149.563, Chenodeoxycholic Acid 149.546)) of 363.524 RLU and an RLU (Time (s) 155.578 (Taurocholic Acid 155.563, Chenodeoxycholic Acid 155.546)) of 370.686 RLU. For the same compound, the RLU (Time (s) 161.578 (Taurocholic Acid 161.563, Chenodeoxycholic Acid 161.546)) was 390.532 RLU, the RLU (Time (s) 167.578 (Taurocholic Acid 167.563, Chenodeoxycholic Acid 167.546)) was 378.911 RLU and the RLU (Time (s) 173.578 (Taurocholic Acid 173.563, Chenodeoxycholic Acid 173.546)) was 356.99 RLU. For the same compound, the RLU (Time (s) 179.578 (Taurocholic Acid 179.563, Chenodeoxycholic Acid 179.546)) was 351.344 RLU, the RLU (Time (s) 191.578 (Taurocholic Acid 191.563, Chenodeoxycholic Acid 191.546)) was 317.716 RLU and the RLU (Time (s) 197.578 (Taurocholic Acid 197.563, Chenodeoxycholic Acid 197.546)) was 291.899 RLU. The RLU (Time (s) 209.578 (Taurocholic Acid 209.563, Chenodeoxycholic Acid 209.546)) was 252.636 RLU, the RLU (Time (s) 221.578 (Taurocholic Acid 221.563, Chenodeoxycholic Acid 221.546)) was 195.665 RLU and the RLU (Time (s) 233.578 (Taurocholic Acid 233.563, Chenodeoxycholic Acid 233.546)) was 155.879 RLU. It also gave an RLU (Time (s) 239.578 (Taurocholic Acid 239.563, Chenodeoxycholic Acid 239.546)) of 121.06 RLU, an RLU (Time (s) 245.578 (Taurocholic Acid 245.563, Chenodeoxycholic Acid 245.546)) of 124.983 RLU and an RLU (Time (s) 293.578 (Taurocholic Acid 293.563, Chenodeoxycholic Acid 293.546)) of 26.9674 RLU. It also gave an RLU (Time (s) 299.578 (Taurocholic Acid 299.563, Chenodeoxycholic Acid 299.546)) of 2.882 RLU, an RLU (Time (s) 305.578 (Taurocholic Acid 305.563, Chenodeoxycholic Acid 305.546)) of 10.8603 RLU and an RLU (Time (s) 311.578 (Taurocholic Acid 311.563, Chenodeoxycholic Acid 311.546)) of -14.8461 RLU. The RLU (Time (s) 317.578 (Taurocholic Acid 317.563, Chenodeoxycholic Acid 317.546)) was -4.053 RLU, the RLU (Time (s) 323.578 (Taurocholic Acid 323.563, Chenodeoxycholic Acid 323.546)) was -64.2935 RLU and the RLU (Time (s) 329.578 (Taurocholic Acid 329.563, Chenodeoxycholic Acid 329.546)) was -47.603 RLU. For the same compound, the RLU (Time (s) 335.578 (Taurocholic Acid 335.563, Chenodeoxycholic Acid 335.546)) was -52.8312 RLU, the RLU (Time (s) 341.578 (Taurocholic Acid 341.563, Chenodeoxycholic Acid 341.546)) was -81.682 RLU and the RLU (Time (s) 347.578 (Taurocholic Acid 347.563, Chenodeoxycholic Acid 347.546)) was -84.764 RLU. The RLU (Time (s) 353.578 (Taurocholic Acid 353.563, Chenodeoxycholic Acid 353.546)) was -78.8648 RLU, the RLU (Time (s) 359.578 (Taurocholic Acid 359.563, Chenodeoxycholic Acid 359.546)) was -73.3268 RLU and the “Activation threshold concentration TAS2R14” value (lowest concentration with significantly increased fluorescence vs empty vector (p < 0.01)) was 0.3 µM.
